Laboratory results taken from patent US20040091477A1, “Immunosuppresive compositions” (priority 2003, published 2004).
Where two headings read alike, the source gives them in different places.

Legend:
[1] = molecular target: platelet activating factor receptor (PAFR) (Homo sapiens, UniProt P25105); conditions: cited from earlier work
IL-5 = IL-5 expression by PMA/IOM-stimulated PBMC from asthma patients, ELISA; assay type: cell-based, human
Experimental: (§1) Venous blood was collected in polyethylene tubes containing EDTA between 9 and 10 a.m. PBMC were separated by Ficoll-paque (Pharmacia, Uppsala, Sweden) density gradient centrifugation. Cells were washed and suspended in AIM-V medium (Gibco BRL, Gaithersburg, Md.) at density of 2×10^6 cells/ml. PBMC were stimulated with 20 nM phorbol 12-myristate 13-acetate (PMA) and 1 μM ionomycin (IOM) (ICN Pharmaceuticals, Inc. CA, USA). The cells were harvested 24 hours later and supernatants were frozen at −70° C. until use. […] For BN52021, a range between 1×10^−9 and 1×10^−4 M was used.
(§2) Cytokine expression (IL-4 and IL5) was evaluated in culture supernatants by enzyme-linked immunoabsorption assay (Amersham North America, Illinois, USA). The detection range was 10-400 pg/ml and 7.8-500 pg/ml respectively. Colorimetric changes proportional to supernatant cytokine concentration were measured using a model 2550 EIA reader (Bio-Rad Laboratories, Hercules Calif. USA). All assays were performed in duplicate.
(§3) The data shown Table 2 was obtained using cultures of 2×10^6 human PBMC, which were isolated from venous blood and stimulated 24 hours with media, 20 nM PMA+1.0 μM ionomycin (PMA/I), 1.0 μM cyclosporine A+PMA/IOM, or 1 μM ginkgolide BN52021+PMA. Expression of interleukins 4 and 5 were measured in PBMC culture supernatents by antibody capture ELISA. […]

[2] = system: lymphocyte activation markers; assay: Dose range of BN52021 on lymphocyte activation markers in PBMC from asthma patients; assay type: cell-based, human; conditions: 1×10^−5 and 1×10^−7 M, 3 of the patients tested
Experimental: as §1
(§4) Two-color flow cytometry was conducted using a Coulter Epics Profile II flow cytometer (Coulter Scientific, Hialeah, Fla., USA). Isotypic controls for the monoclonal antibodies (mAb) used to detect antigens of interest were established for each cell preparation. Positive analysis regions for cells expressing specific surface antigens were set against isotypic controls and specific binding of fluorophore-conjugated mAb was analyzed by cytofluorography according to standard methods. Lymphocyte subpopulations were identified by position on forward and side scatter plots and live-gated. Isotype matched antibodies were utilized to control for nonspecific fluorescence. […] Background values for antibodies used in assays were based on fluorescence of non-specific antibodies. […]

[3] = system: cAMP-specific phosphodiesterase; conditions: cited from earlier work
CD45RA = CD45RA expression by PMA/IOM-stimulated PBMC from asthma patients, flow cytometry; assay type: cell-based, human
Experimental: as §1, §4

CD25 = CD25 expression by PMA/IOM-stimulated PBMC from asthma patients, flow cytometry; assay type: cell-based, human
Experimental: as §1, §4

CD54 = CD54 expression by PMA/IOM-stimulated PBMC from asthma patients, flow cytometry; assay type: cell-based, human
Experimental: as §1, §4

IL-4 = IL-4 expression by PMA/IOM-stimulated PBMC from asthma patients, ELISA; assay type: cell-based, human
Experimental: as §1, §2, §3

HLA-DR = HLA-DR expression by PMA/IOM-stimulated PBMC from asthma patients, flow cytometry; assay type: cell-based, human
Experimental: as §1, §4

[4] = 1 μM, PMA/IOM-stimulated cultures
[5] = PMA + IOM + 1 μM compound, 24 hours, ±SE

platelet activating factor receptor (PAFR), sequence (P25105 whole entry, species assumed): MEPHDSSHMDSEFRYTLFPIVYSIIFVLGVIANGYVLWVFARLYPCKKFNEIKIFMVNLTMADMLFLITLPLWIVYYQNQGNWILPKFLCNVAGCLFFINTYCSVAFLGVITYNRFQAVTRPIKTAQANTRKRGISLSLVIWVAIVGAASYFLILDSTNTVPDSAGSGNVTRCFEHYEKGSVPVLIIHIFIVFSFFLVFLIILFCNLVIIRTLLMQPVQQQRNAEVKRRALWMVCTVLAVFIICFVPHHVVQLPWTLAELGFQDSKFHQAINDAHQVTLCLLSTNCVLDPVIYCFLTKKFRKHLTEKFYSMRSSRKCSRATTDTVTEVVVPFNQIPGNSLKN

C[C@@H]1C(=O)O[C@H]2[C@@H](O)[C@@]34[C@H]5C[C@@H](C(C)(C)C)[C@]36[C@@H](OC(=O)[C@@H]6O)O[C@@]4(C(=O)O5)[C@@]12O [BN52021, Ginkgolide B]
PAFR antagonist activity (in words) [1]: PAFR antagonist activity | PAFR antagonist activity (in words) ([1]; listed as Ginkgolide B): PAFR antagonist | effect on IL-5 expression (in words) (IL-5; [4]): no statistically significant effect | IL-5 in culture supernatant (IL-5; [5]): 374 ± 105 pg/mL | change in lymphocyte activation markers (in words) [2]: No change occurred in lymphocyte activation markers | cAMP phosphodiesterase inhibitory activity (in words) [3]: does not possess cAMP phophodiesterase activity | effect on CD45RA expression (in words) (CD45RA; [4]): decreased significantly | % CD45RA (CD45RA; [5]): 48.8 ± 9.5 % | effect on CD25 expression (in words) (CD25; [4]): unaffected | % CD25 (CD25; [5]): 7.1 ± 2.0% | effect on CD54 expression (in words) (CD54; [4]): unaffected | % CD54 (CD54; [5]): 27.4 ± 6.9% | effect on IL-4 expression (in words) (IL-4; [4]): no statistically significant effect | IL-4 in culture supernatant (IL-4; [5]): 81.7 ± 28.1 pg/mL | effect on HLA-DR expression (in words) (HLA-DR; [4]): a trend towards the reduction | % HLA-DR (HLA-DR; [5]): 21.2 ± 5.3¶ %
